Test results: patent US12472259B2, “PKC inhibitors for the treatment of septic cholestasis with polymethine dye targeting” (SMARTDYELIVERY GMBH, priority 2018, dated 2025)

How the values were obtained:
[1] = test system: male C57/BL6 mice, PCI model; experiment: Survival rate in cholestasis model under septic conditions, peritoneal contamination and infection (PCI); format: in vivo; details: 4 mg/kg body weight
Description: In order to mimic the septic cholestasis, a systemic inflammation was induced using the well-established peritoneal contamination and infection (PCI) model. In this model, a human faeces suspension is applied intraperitoneally (i.p.) and rapidly triggers sepsis with liver dysfunction.
For each batch of human stool, the dose is titrated carefully for a survival between 0% and 20% within two weeks.
To find the adequate dose of stool, different doses were tested. 6 h after i.p. application of the stool, 8-12 weeks old C57/BL6 mice or FVB/N mice were treated with the nanoparticles or the free drug respectively.
A systemic infection/sepsis with organ failure was induced in male C57/BL6 mice by using the PCI model. For this purpose, a human fecal suspension (2.5 μl/g BW for stool batch1 and 6 μl/g for stool batch 2, respectively) was injected intraperitoneally (without anesthesia) with weight adaptation, thus triggering peritonitis with subsequent systemic infection. […] The animals were closely monitored and scored every 6 hours for signs of infection in order to timely. […] With the evaluated dose of 6 μl/g BW stool and additional antibiotic therapy, all mice died within three days, as shown in the Kaplan-Meier-Schatzer diagram (FIG. 11, right panel). […]

[2] = during idelalisib; cited from earlier work
[3] = cited from earlier work

O=C1NC(=O)/C(=C\c2ccc3nccnc3c2)S1 [AS605240]
activity of the free drug alone (dose evaluation, survival) [1]: active

CN(C)CCCn1cc(C2=C(c3c[nH]c4ccccc34)C(=O)NC2=O)c2ccccc21 [BIM-1]
activity of the free drug alone (dose evaluation, survival) [1]: active

CC[C@H](Nc1ncnc2[nH]cnc12)c1nc2cccc(F)c2c(=O)n1-c1ccccc1 [idelalisib]
risk of developing sepsis as adverse effect compared to placebo [2]: five-fold higher risk

CO[C@@H]1[C@H](N(C)C(=O)c2ccccc2)C[C@H]2O[C@]1(C)n1c3ccccc3c3c4c(c5c6ccccc6n2c5c31)C(=O)NC4 [midostaurin]
On-treatment death unrelated to the underlying malignancy ([3]; 16 patients, most commonly from infection (sepsis or pneumonia)): 11% | Grade≥3 adverse reactions (fatigue, sepsis, gastrointestinal hemorrhage, pneumonia, diarrhea, febrile neutropenia) reported in ([3]; patients on midostaurin): ≥ 5% | Serious adverse reactions most commonly due to infections and gastrointestinal disorders ([3]; patients on midostaurin): 20% | Serious adverse reactions reported ([3]; patients on midostaurin): 68 % of patients | Treatment discontinuation due to adverse reaction ([3]; patients on midostaurin): 21 % of patients
